Format in all cases: cell-based
The test system of assay [1] is Human esophageal cancer cell TE-1. Briefly: CCK-8 cell proliferation assay, TE-1. As to conditions: TE-1 cells, 72 hrs with drug, CCK-8, OD 450 nm. The method, then:
(§1) The effect of samples on the proliferation of human tumor cells in vitro was determined by CCK-8 cell proliferation assay.
(§2) The cells were assayed through a method including the following steps: • 1) The cells were digested, counted, and prepared into a cell suspension in a corresponding culture medium (Table 1) (5×10^4 cells/ml for CFPAC-1 and RPMI 8226, and 3.5×10^4 cells/ml for rest cells). The cell suspension was added to each well of a 96-well plate in 100 μl/well. • 2) Then the 96-well plate was incubated for 24 hrs in an incubator at 37° C. and 5% CO2. • 3) The drug was diluted with the culture medium to the required working concentration. 100 μl of the corresponding drug containing medium was added to each well.

For assay [2], the system named is Human gastric cancer cell MKN45. Put plainly: CCK-8 cell proliferation assay, MKN45. As to conditions: MKN-45 cells, 72 hrs with drug, CCK-8, OD 450 nm. The method, then: as §1, §2
For assay [3], the system named is Human lung adenocarcinoma cell A549. Put plainly: CCK-8 cell proliferation assay, A549. As to conditions: A549 cells, 72 hrs with drug, CCK-8, OD 450 nm. The method, then:
as §1, §2

Assay [4] has as its system Human colon cancer cell HCT-116. Briefly: CCK-8 cell proliferation assay, HCT-116. As to conditions: HCT116 cells, 72 hrs with drug, CCK-8, OD 450 nm. The method, then: as §1, §2
Assay [5] has as its system Human multiple myeloma cell RPMI 8226. Put plainly: CCK-8 cell proliferation assay, RPMI 8226. As to conditions: RPMI8226 cells, 72 hrs with drug, CCK-8, OD 450 nm. As for the experimental part:
as §1, §2

For assay [6], the system named is Human pancreatic cancer cell CFPAC-1. Put plainly: CCK-8 cell proliferation assay, CFPAC-1. As to conditions: CFPAC-1 cells, 72 hrs with drug, CCK-8, OD 450 nm. The method, then:
as §1, §2

In assay [7] the test system is Human hepatoma cell HepG2. Briefly: CCK-8 cell proliferation assay, HepG2. As to conditions: HepG2 cells, 72 hrs with drug, CCK-8, OD 450 nm. The method, then: as §1, §2

For the compound `N#CN=C(NCCCCCN1CCN(C(=O)c2ccccc2)CC1)Nc1ccncc1` [BSS-PC003], the IC50 in assay [1] worked out at 46 nM; in assay [2], 50 nM; in assay [3], 29 nM; in assay [4] it was 41 nM; in assay [5], 19 nM; in assay [6], 26 nM. This compound registered an IC50 in assay [7] of 49 nM.

As to `N#CN=C(NCCCCCN1CCN(C(=O)c2cccs2)CC1)Nc1ccncc1` [BSS-PC004, 2-cyano-1-(5-(1-(2-thienylformyl)piperazine-4-yl)pentyl)-3-(4-pyridinyl)guanidine], the IC50 is 95 nM in assay [1]; 43 nM in assay [2]; 35 nM in assay [3]; 66 nM in assay [4]; 34 nM in assay [5]; 25 nM in assay [6]. Also, the midpoint of inhibition in assay [7], the IC50, lay at 82 nM.

For the compound `COc1cccc(OC)c1C(=O)N1CCN(CCCCCNC(=NC#N)Nc2ccncc2)CC1` [BSS-PC006, 2-cyano-1-(5-(1-(2,6-dimethoxybenzoyl)piperazine-4-yl)pentyl)-3-(4-pyridinyl)guanidine], the IC50 in assay [1] was 125 nM; in assay [2], 89 nM; in assay [3], 73 nM; in assay [4] it was 76 nM; in assay [5] it was 34 nM; in assay [6], 55 nM. In assay [7], this compound had an IC50 of 92 nM.

As for `N#CN=C(NCCCCCN1CCN(C(=O)c2ccco2)CC1)Nc1ccncc1` [BSS-PC007, 2-cyano-1-(5-((1-furoyl)piperazine-4-yl)pentyl)-3-(4-pyridinyl)guanidine], the IC50 in assay [1] worked out at 96 nM; in assay [2], 72 nM; in assay [3], 36 nM; in assay [4], 55 nM; in assay [5] it was 29 nM; in assay [6], 27 nM. Further, the midpoint of inhibition in assay [7], the IC50, lay at 91 nM.

In the case of `N#CN=C(NCCCCCN1CCN(C(=O)c2ccc[nH]2)CC1)Nc1ccncc1` [BSS-PC008, 2-cyano-1-(5-(1-(2-pyrrolylformyl)piperazine-4-yl)pentyl)-3-(4-pyridinyl)guanidine], the IC50 in assay [1] came out at 107 nM; in assay [2], 59 nM; in assay [3], 55 nM; in assay [4], 89 nM; in assay [5], 38 nM; in assay [6] it was 51 nM. In assay [7], the IC50 amounted to 101 nM.

In the case of `N#CN=C(NCCCCCN1CCN(C(=O)C2CCCS2)CC1)Nc1ccncc1` (stereo not drawn) [BSS-PC009, 2-cyano-1-(5-(1-(2-tetrahydrothienylformyl)piperazine-4-yl)pentyl)-3-(4-pyridinyl)guanidine], the IC50 amounted to 81 nM in assay [1]; 68 nM in assay [2]; 71 nM in assay [3]; 92 nM in assay [4]; 43 nM in assay [5]; 58 nM in assay [6]. This compound showed an IC50 in assay [7] of 85 nM.

In the case of `N#CN=C(NCCCCCN1CCN(C(=O)C2CCCN2)CC1)Nc1ccncc1` (stereo not drawn) [BSS-PC010, 2-cyano-1-(5-(1-(2-pyrrolidinylformyl)piperazine-4-yl)pentyl)-3-(4-pyridinyl)guanidine], the concentration for half-maximal inhibition (IC50) is 86 nM in assay [1]; 53 nM in assay [2]; 67 nM in assay [3]; 69 nM in assay [4]; 39 nM in assay [5]; 33 nM in assay [6]. The compound also showed an IC50 in assay [7] of 61 nM.

Take `N#CN=C(NCCCCCN1CCN(C(=O)C2CCCO2)CC1)Nc1ccncc1` (stereo not drawn) [BSS-PC011]: the IC50 is 47 nM in assay [1]; 61 nM in assay [2]; 40 nM in assay [3]; 49 nM in assay [4]; 42 nM in assay [5]; 39 nM in assay [6]. The compound also came in with an IC50 in assay [7] of 52 nM.

`N#CN=C(NCCCCCN1CCN(C(=O)c2ccco2)CC1)Nc1ccnc(F)c1` [BSS-PC013]: the IC50 turned out to be 57 nM in assay [1]; 72 nM in assay [2]; 48 nM in assay [3]; 101 nM in assay [4]; 28 nM in assay [5]; 38 nM in assay [6]. This compound displayed an IC50 in assay [7] of 93 nM.
